Here are results for five compounds from article PMC3407089, “Influence of GABAA Receptor α Subunit Isoforms on the Benzodiazepine Binding Site” (PLoS ONE, 2012).

The structures appear in SMILES notation.

The target of assay [1] is T1, α6T205Cβ2γ2 receptor (Rattus norvegicus, UniProt P18508+P30191, T224C).
T1 construct: expressed in transfected cells; host or cells: HEK293 cells (ATCC CRL 1573), membranes
Briefly: Affinity estimate with [^3H]Ro15–4513. The assay is classed as binding. The following applies: read-out: Estimated affinity. Here is the method:
(§1) cDNAs coding for the αx (x = 1, 2, 3, 6), β2, and γ2S subunits DNA (20 µg : 20 µg : 20 µg) per 9 cm diameter dish were transfected in human embryonic kidney (HEK) 293 cells (American Type of Culture Collection, MD, USA, CRL 1573) using the calcium phosphate precipitation technique. For α5 containing receptors β2 was replaced by β1. […] Culturing of cells and membrane preparation were done as described before.
(§2) The properties of the recombinant mutant receptors were only estimated. For this affinity estimate, membranes were re-suspended in phosphate buffer using a Teflon homogenizer. They were incubated in a total volume of 360 µl for 1 h on ice in the presence of [^3H]Ro15–1788 (78.6 Ci/mmol; PerkinElmer Life Sciences). The final protein concentration was 0.1–1 mg of protein/ml. Total binding was measured at 0.5 and 5 nM [^3H]Ro15–1788. Nonspecific binding was determined under the same condition but in the presence of 100 µM unlabeled Ro15–1788 and amounted to less than 10% of total binding, except for α2S206Cβ2γ2 and α5T208Cβ2γ2 where it amounted to 10–17%. Expression levels of α6β2γ2 receptors were estimated with [^3H]Ro15–4513. Membranes were collected by rapid vacuum filtration on GF/C filters. After three washing steps (3 sec each) with 5 ml of phosphate buffer, the filter-retained radioactivity was determined by liquid scintillation counting.

In assay [2] the test system is α6S203Cβ2γ2 GABAA receptor. In words: Covalent reaction at the functional level (two-electrode voltage clamp, Xenopus oocytes). The following applies: 1 µM Abecarnil at GABA EC2–5, naive oocytes. In kind it is cell-based. The protocol:
(§3) Capped cRNAs were synthesized (Ambion, Austin, TX, USA) from the linearized plasmids with a cytomegalovirus promotor (pCMVvectors) containing the different subunits, respectively. A poly-A tail of about 400 residues was added to each transcript using yeast poly- A polymerase (United States Biologicals, Cleveland, OH, USA). The concentration of the cRNA was quantified on a formaldehyde gel using Radiant Red stain (Bio-Rad) for visualization of the RNA. Known concentrations of RNA ladder (Invitrogen) were loaded as standard on the same gel. cRNAs were precipitated in ethanol/isoamylalcohol 19∶ 1, the dried pellet dissolved in water and stored at −80°C. cRNA mixtures were prepared from these stock solutions and stored at −80°C. Xenopus laevis oocytes were prepared, injected and defolliculated as described previously, [39]. They were injected with 50 nL of the cRNA solution containing wild type or mutated α1 or α2, α3, α5, α6 and wild type β2 and γ2 subunits at a concentration of 10 nM : 10 nM : 50 nM [40] and then incubated in modified Barth’s solution at +18°C for at least 24 h before the measurements.
(§4) Currents were measured using a modified two-electrode voltage clamp amplifier Oocyte clamp OC-725 (Warner Instruments) in combination with a XY-recorder (90% response time 0.1s) or digitized at 100 Hz using a PowerLab 2/20 (AD Instruments) using the computer programs Chart (ADInstruments GmbH, Spechbach, Germany). Tests with a model oocyte were performed to ensure linearity in the larger current range. The response was linear up to 15 µA.
(§5) Electrophysiological experiments were performed by using the two-electrode voltage clamp method at a holding potential of −80 mV. The perfusion medium contained 90 mM NaCl, 1 mM KCl, 1 mM MgCl2, 1 mM CaCl2, and 5 mM Na-HEPES (pH 7.4) and was applied by gravity flow 6 ml/min. The perfusion medium was applied through a glass capillary with an inner diameter of 1.35 mm, the mouth of which was placed about 0.4 mm from the surface of the oocyte. Allosteric modulation via the benzodiazepine site was measured at a GABA concentration eliciting 2–5% of the maximal GABA current amplitude. GABA was applied for 20 s alone or in combination with allosteric compound. 6 ml of the covalent reacting compound was applied to the oocyte and incubated for 3 min while stopping the flow of the perfusion medium. Modulation of GABA currents was expressed as (I(modulator + GABA)/IGABA –1) * 100%. The perfusion system was cleaned between drug applications by washing with DMSO to avoid contamination.
Background: In two-electrode clamp one electrode senses voltage and the other passes current.

For assay [3], the system named is α6N204Cβ2γ2 GABAA receptor. Described as above. In kind it is cell-based. The following applies: 1 µM Abecarnil at GABA EC2–5, naive oocytes. The protocol: as §3, §4, §5
In assay [4] the test system is T2, α1G207Cβ2γ2 receptors.
T2 construct: expressed in transfected cells; host or cells: HEK293 cells (ATCC CRL 1573), membranes
Briefly: Radioactive ligand binding. As to conditions: not shown. Here is the method: as §1, §2

Assay [5] has as its system T3, α2G207Cβ2γ2 receptors.
T3 construct: expressed in transfected cells; host or cells: HEK293 cells (ATCC CRL 1573), membranes
Briefly: Radioactive ligand binding. The following applies: not shown. Here is the method:
as §1, §2

For assay [6], the system named is T4, α6 containing receptors.
T4 construct: expressed in transfected cells; host or cells: Xenopus laevis oocytes (cRNA injection)
In words: Functional modulation of GABA currents (Xenopus oocytes). The following applies: functional level. In kind it is cell-based. The protocol: as §3, with “Xenopus laevis oocytes were prepared, injected and defolliculated as described previously, [39]. They were injected with 50 nL of the cRNA solution containing wild type or mutated α1 or α2, α3, α5, α6 and wild type β2 and γ2 subunits at a concentration of 10 nM : 10 nM : 50 nM [40] and then incubated in modified Barth’s solution at +18°C for at least 24 h before the measurements.” left out
Currents were measured using a modified two-electrode voltage clamp amplifier Oocyte clamp OC-725 (Warner Instruments) in combination with a XY-recorder (90% response time 0.1s) or digitized at 100 Hz using a PowerLab 2/20 (AD Instruments) using the computer programs Chart (ADInstruments GmbH, Spechbach, Germany). […]
Electrophysiological experiments were performed by using the two-electrode voltage clamp method at a holding potential of −80 mV. […] Allosteric modulation via the benzodiazepine site was measured at a GABA concentration eliciting 2–5% of the maximal GABA current amplitude. […] Modulation of GABA currents was expressed as (I(modulator + GABA)/IGABA –1) * 100%. […]

Assay [7] relates to α1S204Cβ2γ2 GABAA receptor. Briefly: Covalent reaction at the functional level (two-electrode voltage clamp, Xenopus oocytes). In kind it is cell-based. The following applies: 1 µM diazepam at GABA EC2–5, naive oocytes. The protocol: as §3, §4, §5
For assay [8], the system named is α3S230Cβ2γ2 GABAA receptor. The assay is described as above. In kind it is cell-based. As to conditions: 1 µM diazepam at GABA EC2–5, naive oocytes. Here is the method: as §3, §4, §5
In assay [9] the test system is T5, α5T210Cβ2γ2 GABAA receptor.
T5 construct: expressed in transfected cells; host or cells: Xenopus laevis oocytes (cRNA injection)
The assay is described as above. In kind it is cell-based. As to conditions: 1 µM diazepam at GABA EC2–5, naive oocytes. Here is the method:
as §3, §4, §5

The subject of assay [10] is α3T231Cβ2γ2 GABAA receptor. The description is as above. As to conditions: 1 µM diazepam at GABA EC2–5, naive oocytes. In kind it is cell-based. Here is the method: as §3, §4, §5
Assay [11] relates to α5S209Cβ2γ2 GABAA receptor. Described as above. In kind it is cell-based. The following applies: 1 µM diazepam at GABA EC2–5, naive oocytes. Here is the method:
as §3, §4, §5

Assay [12] deals with α5T208Cβ2γ2 GABAA receptor. The description is as above. In kind it is cell-based. As to conditions: 1 µM diazepam at GABA EC2–5, naive oocytes. The protocol:
as §3, §4, §5

T1 sequence (P30191 20-453 T224C): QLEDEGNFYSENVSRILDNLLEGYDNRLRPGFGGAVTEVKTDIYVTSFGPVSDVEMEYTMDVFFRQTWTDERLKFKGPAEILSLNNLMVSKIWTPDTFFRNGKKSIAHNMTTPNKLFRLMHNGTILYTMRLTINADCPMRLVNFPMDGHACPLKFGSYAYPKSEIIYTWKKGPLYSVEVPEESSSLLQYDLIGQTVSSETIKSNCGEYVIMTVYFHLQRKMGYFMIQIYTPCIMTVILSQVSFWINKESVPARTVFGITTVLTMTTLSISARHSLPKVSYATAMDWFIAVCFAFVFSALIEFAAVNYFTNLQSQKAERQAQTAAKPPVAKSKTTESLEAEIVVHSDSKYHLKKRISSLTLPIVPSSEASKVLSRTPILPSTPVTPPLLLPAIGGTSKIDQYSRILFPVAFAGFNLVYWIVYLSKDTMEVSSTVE
T1 sequence (P63138 25-474 partner limits assumed): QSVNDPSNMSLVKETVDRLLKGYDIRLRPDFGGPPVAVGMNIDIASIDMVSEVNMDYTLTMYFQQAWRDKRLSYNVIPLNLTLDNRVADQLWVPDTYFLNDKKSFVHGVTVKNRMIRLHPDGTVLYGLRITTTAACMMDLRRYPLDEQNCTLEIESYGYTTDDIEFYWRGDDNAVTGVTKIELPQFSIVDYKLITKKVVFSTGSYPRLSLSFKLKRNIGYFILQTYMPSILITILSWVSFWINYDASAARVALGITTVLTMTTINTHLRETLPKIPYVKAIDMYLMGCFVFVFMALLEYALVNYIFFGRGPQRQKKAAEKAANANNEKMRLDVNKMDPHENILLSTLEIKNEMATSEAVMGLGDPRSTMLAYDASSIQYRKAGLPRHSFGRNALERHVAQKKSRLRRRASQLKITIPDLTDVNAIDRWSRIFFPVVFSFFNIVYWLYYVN
T1 sequence (P18508 39-466): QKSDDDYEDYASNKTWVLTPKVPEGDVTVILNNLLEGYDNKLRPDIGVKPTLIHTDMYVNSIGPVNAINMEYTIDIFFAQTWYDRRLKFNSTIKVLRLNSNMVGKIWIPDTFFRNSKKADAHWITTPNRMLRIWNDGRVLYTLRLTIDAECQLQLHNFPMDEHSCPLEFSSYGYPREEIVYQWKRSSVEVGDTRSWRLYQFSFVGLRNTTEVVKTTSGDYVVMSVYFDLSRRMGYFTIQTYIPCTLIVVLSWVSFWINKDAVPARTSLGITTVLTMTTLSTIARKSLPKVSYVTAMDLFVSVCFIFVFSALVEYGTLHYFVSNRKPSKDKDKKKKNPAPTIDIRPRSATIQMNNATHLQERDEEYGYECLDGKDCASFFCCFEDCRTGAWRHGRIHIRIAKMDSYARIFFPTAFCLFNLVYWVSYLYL

As for `CCOC(=O)c1ncn2c1CN(C)C(=O)c1cc(N=[N+]=[N-])ccc1-2` [[^3H]Ro15–4513], in [1], the Kd was 4 nM.

Turning to `COCc1c(C(=O)OC(C)C)ncc2[nH]c3ccc(OCc4ccccc4)cc3c12` [Abecarnil, reference compound], the “% allosteric modulation, DZ (*1µM Abecarnil was used)” value in assay [2] is 50±20 %; in assay [3], 70±40 %.

Turning to `CN1C(=O)CN=C(c2ccccc2F)c2cc([N+](=O)[O-])ccc21` [[^3H]flunitrazepam, flunitrazepam], the “High affinity binding (in words)” value in assay [4] and in assay [5] was “did not confer to the expressed receptors high affinity” throughout.

On to `CN1C(=O)CN=C(c2ccccc2)c2cc(Cl)ccc21` [DZ, diazepam, reference compound], for which the “Response to diazepam (in words)” value in assay [6] is listed as “did not respond”. In addition, the “% allosteric modulation, DZ” value in [7] worked out at 126±9%; in [8] it was 149±44%; in assay [9] it was 82±14%; in assay [10], 88±45%; in assay [11], 103±3%; in assay [12], 129±38%.

`CCOC(=O)c1ncn2c1CN(C)C(=O)c1cc(F)ccc1-2` [[^3H]Ro 15–1788]: the “High affinity binding (in words)” value in assay [4] and in assay [5] was “did not confer to the expressed receptors high affinity” each time.
